Assay results taken from paper PMC8037910, “Effect of Chronic Administration of 5-(3-chlorophenyl)-4-Hexyl-2,4 -Dihydro-3H-1,2,4-Triazole-3-Thione (TP-315)—A New Anticonvulsant Drug Candidate—On Living Organisms” (International Journal of Molecular Sciences, 2021).
Read-outs that look alike come from different tables or passages of the source.

Tests used:
[1] = molecular target: batrachotoxin-binding site on voltage-gated sodium channels; set-up: method as in PMID 25226229, PMID 30594731, PMID 28824309; settings: read-out: Affinity towards Batrachotoxin-Binding Site on Sodium Channels IC50 ± SEM; cited from earlier work
Albino Swiss mice = assay: Morphological blood parameters after chronic administration; assay type: in vivo; settings: 47.6 mg/kg i.p. for 14 days
Protocol: The experiments were carried out on adult male Albino Swiss mice weighing 20 ± 5 g. […] The mice from the control group (8 mice) received 0.9% NaCl solution i.p. once daily for 14 days.
After completion of the experimental procedure (on the 15th day—24h after the last injection), the animals were decapitated. Their livers and kidneys were collected for histopathological examination, while blood was drawn for biochemical and morphological tests and for HPLC-FL determination of TP-315 in serum.
For the determination of biochemical parameters (ALT, AST, GGT, creatinine, urea), whole blood was collected in clotting activator tubes (Sarstadt, Nümbrecht, Germany). To obtain serum, blood tubes were centrifuged at 4200 RPM for 10 min. Biochemical determinations were performed on an ERBA XL 640 analyzer (ERBA Mannheim, Germany) according to the manufacturer’s standard procedure. Whole blood for the determination of morphological parameters was collected in ethylenediaminetetraacetic acid (EDTA) tubes (Sarstadt, Nümbrecht, Germany). Morphological parameters were determined on the MYTHIC 18 Cormay analyzer (Cormay, Lublin, Poland) according to the manufacturer’s standard procedure.

CYP2B6 = molecular target: T1, CYP2B6 (Homo sapiens, UniProt P20813); assay: Vivid CYP450 screening kit, CYP2B6; assay type: biochemical; settings: 0.015 μg/mL, 20 min incubation, p > 0.05
T1 construct: purchased Thermo Fisher Scientific
T1 sequence (P20813 1-491): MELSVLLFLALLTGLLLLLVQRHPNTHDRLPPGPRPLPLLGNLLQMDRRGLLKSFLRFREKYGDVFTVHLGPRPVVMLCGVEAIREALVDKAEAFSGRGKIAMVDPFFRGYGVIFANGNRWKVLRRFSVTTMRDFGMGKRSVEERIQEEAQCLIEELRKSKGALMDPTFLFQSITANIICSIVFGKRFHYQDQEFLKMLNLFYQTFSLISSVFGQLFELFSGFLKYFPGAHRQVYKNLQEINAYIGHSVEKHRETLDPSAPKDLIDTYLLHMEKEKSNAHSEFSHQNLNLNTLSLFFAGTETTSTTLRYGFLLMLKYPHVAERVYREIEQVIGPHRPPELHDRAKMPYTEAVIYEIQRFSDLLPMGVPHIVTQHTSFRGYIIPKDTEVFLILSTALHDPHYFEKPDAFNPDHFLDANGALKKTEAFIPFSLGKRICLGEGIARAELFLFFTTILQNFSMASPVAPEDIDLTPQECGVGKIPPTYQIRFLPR
Protocol: (§1) Possible inhibitory effect of TP-315 on the catalytic activity of human cytochrome CYP450 enzymes was tested using Vivid CYP450 screening kits (Thermo Fisher Scientific, Waltham, MA, USA) according to the manufacturer’s standard procedure (Vivid BOMCC substrate CYP2B6 blue, Vivid DBOMF substrate CYP3A4 green, Vivid DBOMF substrate CYP3A5 green, Vivid EOMCC substrate CYP2C19 blue, Vivid MOBFC substrate CYP2D6 cyan). The experiment was carried out in the endpoint test mode (reading after 20 min of incubation). The test compound was dissolved in DMSO (starting concentrations, 2.5× concentrated); to avoid the influence of the solvent on the enzyme activity, the results were compared with the solvent control. The influence of TP-315 on the activity of selected enzymes was tested at concentrations of 0.015, 0.1, 0.5, 1, 2.5, 5, and 10 μg/mL. The positive control compounds (inhibitors) were miconazole (for CYP2C19 and CYP2B6), quinidine (for CYP2D6), and ketoconazole (for CYP3A4 and CYP3A5). Inhibitor concentrations were selected according to the manufacturer’s recommendations to achieve ≥90% inhibition. All inhibitors were obtained from Sigma-Aldrich (St. Louis, MO, USA). The BioTek Synergy H1 reader (BioTek Instruments, Inc., USA) was used to read the fluorescence according to the manufacturer’s guidelines. The tests were performed in duplicate.

[2] = test system: 6 Hz psychomotor seizure model; set-up: method as in PMID 32253957; settings: mice, cited from earlier work
CYP2D6 = molecular target: T2, CYP2D6 (Homo sapiens, UniProt P10635); assay: Vivid CYP450 screening kit, CYP2D6; assay type: biochemical; settings: 0.015 μg/mL, 20 min incubation, p > 0.05
T2 construct: purchased Thermo Fisher Scientific
T2 sequence (P10635 whole entry): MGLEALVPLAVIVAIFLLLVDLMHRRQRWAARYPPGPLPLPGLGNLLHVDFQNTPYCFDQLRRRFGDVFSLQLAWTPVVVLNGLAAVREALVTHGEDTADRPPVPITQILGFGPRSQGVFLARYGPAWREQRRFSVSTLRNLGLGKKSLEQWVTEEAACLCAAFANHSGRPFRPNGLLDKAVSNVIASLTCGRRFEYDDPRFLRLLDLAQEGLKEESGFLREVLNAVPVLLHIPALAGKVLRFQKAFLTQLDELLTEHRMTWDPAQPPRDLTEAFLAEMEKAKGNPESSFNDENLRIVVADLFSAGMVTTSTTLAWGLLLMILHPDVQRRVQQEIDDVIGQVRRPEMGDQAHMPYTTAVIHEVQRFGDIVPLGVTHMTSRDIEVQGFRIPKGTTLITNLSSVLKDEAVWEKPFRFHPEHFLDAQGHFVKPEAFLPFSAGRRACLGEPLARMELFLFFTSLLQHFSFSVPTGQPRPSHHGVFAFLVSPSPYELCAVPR
Protocol: as §1

CYP2C19 = molecular target: T3, CYP2C19 (Homo sapiens, UniProt P33261); assay: Vivid CYP450 screening kit, CYP2C19; assay type: biochemical; settings: 0.015 µg/mL, 20 min incubation, p < 0.05
T3 construct: purchased Thermo Fisher Scientific
T3 sequence (P33261 whole entry): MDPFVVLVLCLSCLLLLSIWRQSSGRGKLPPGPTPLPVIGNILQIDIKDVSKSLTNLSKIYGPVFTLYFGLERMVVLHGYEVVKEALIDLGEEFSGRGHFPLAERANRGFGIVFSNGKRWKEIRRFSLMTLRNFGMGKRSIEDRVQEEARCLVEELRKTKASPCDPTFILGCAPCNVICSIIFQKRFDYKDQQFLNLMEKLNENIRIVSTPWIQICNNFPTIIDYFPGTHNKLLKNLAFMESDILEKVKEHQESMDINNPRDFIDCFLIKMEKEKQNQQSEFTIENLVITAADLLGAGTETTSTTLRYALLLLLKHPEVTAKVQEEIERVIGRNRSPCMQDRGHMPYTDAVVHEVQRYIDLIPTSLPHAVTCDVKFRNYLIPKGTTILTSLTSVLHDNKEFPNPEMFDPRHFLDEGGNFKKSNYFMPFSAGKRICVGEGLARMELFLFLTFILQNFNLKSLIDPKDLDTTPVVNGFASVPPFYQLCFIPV
Protocol: as §1

mice = test system: mice; set-up: method as in PMID 23291122, PMID 25226229, PMID 25090118; unit not given here; settings: chimney test, cited from earlier work
CYP3A5 = molecular target: T4, CYP3A5 (Homo sapiens, UniProt P20815); assay: Vivid CYP450 screening kit, CYP3A5; assay type: biochemical; settings: 0.015 μg/mL, 20 min incubation, p > 0.05
T4 construct: purchased Thermo Fisher Scientific
T4 sequence (P20815 whole entry): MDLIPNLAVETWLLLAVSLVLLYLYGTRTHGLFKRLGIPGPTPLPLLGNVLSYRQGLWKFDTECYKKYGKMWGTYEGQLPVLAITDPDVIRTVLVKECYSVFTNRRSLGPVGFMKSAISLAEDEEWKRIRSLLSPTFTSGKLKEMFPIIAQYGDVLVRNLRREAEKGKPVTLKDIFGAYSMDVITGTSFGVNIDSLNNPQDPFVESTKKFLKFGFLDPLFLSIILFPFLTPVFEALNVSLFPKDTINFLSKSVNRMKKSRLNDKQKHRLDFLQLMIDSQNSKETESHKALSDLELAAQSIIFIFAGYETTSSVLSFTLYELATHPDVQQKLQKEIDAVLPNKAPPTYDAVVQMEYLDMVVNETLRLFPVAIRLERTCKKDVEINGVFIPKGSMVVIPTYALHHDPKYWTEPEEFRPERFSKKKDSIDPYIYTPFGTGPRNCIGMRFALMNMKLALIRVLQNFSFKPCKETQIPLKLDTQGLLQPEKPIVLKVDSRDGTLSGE
Protocol: as §1

[3] = test system: maximal electroshock-induced seizure (MES); set-up: method as in PMID 23291122, PMID 25226229, PMID 25090118; settings: mice, cited from earlier work

Compound: CCCCCCn1c(-c2cccc(Cl)c2)n[nH]c1=S [TP-315, 5-(3-Chlorophenyl)-4-hexyl-2,4-dihydro-3H-1,2,4-triazole-3-thione]
- IC50 [1]: 6.21 ± 0.8 µM
- Effect of chronic administration on hematological parameters vs control group (Albino Swiss mice; unpaired t-test p > 0.05): does not cause disturbances in the white blood cell and red cell systems
- BAS, basophils (Albino Swiss mice; examined group, mean ± SD): 0.44 ± 0.19%
- EOS, eosinophile (Albino Swiss mice; examined group, mean ± SD): 6.54 ± 2.05%
- HCT, hematocrit (Albino Swiss mice; examined group, mean ± SD): 41.08 ± 3.65%
- HGB, hemoglobin concentration (Albino Swiss mice; examined group, mean ± SD): 13.88 ± 1.28 g/dL
- LYM, lymphocytes (Albino Swiss mice; examined group, mean ± SD): 65.7 ± 6.96%
- MCH, mean corpuscular hemoglobin (Albino Swiss mice; examined group, mean ± SD): 16.62 ± 0.38 pg
- MCHC, mean corpuscular hemoglobin concentration (Albino Swiss mice; examined group, mean ± SD): 33.84 ± 0.46 g/dL
- MCV, mean corpuscular volume (Albino Swiss mice; examined group, mean ± SD): 49.1 ± 20.06 µm3
- MON, monocytes (Albino Swiss mice; examined group, mean ± SD): 4.04 ± 1.17%
- MPV, mean platelet volume (Albino Swiss mice; examined group, mean ± SD): 5.08 ± 0.25 µm3
- NEU, neutrophils (Albino Swiss mice; examined group, mean ± SD): 23.28 ± 7.19%
- PCT, plateletcrit (Albino Swiss mice; examined group, mean ± SD): 0.53 ± 0.16%
- PDW, platelet distribution width (Albino Swiss mice; examined group, mean ± SD): 15.24 ± 0.17
- PLT, platelet (Albino Swiss mice; examined group, mean ± SD): 1034.8 ± 268.44 10*3/µL
- RBC, red blood cells (Albino Swiss mice; examined group, mean ± SD): 8.37 ± 0.84 10*6/μL
- RDW-CV, red blood cell distribution width (Albino Swiss mice; examined group, mean ± SD): 13.46 ± 0.56%
- RDW-SD, red blood cell distribution width standard deviation (Albino Swiss mice; examined group, mean ± SD): 28.46 ± 1.36 µm3
- WBC, white blood cells (Albino Swiss mice; examined group, mean ± SD): 4.25 ± 1.2 10*3/µL
- Inhibition of CYP2B6 activity compared to the control (CYP2B6): did not statistically significantly inhibit
- Anticonvulsant Activity in 6 Hz Test ED50 ± SEM ([2]; pretreatment time 15 min): 61.3 ± 10.1 mg/kg
- Anticonvulsant Activity in 6 Hz Test ED50 ± SEM ([2]; pretreatment time 30 min): 59.7 ± 6.8 mg/kg
- Anticonvulsant Activity in 6 Hz Test ED50 ± SEM ([2]; pretreatment time 60 min): 68.1 ± 11.0 mg/kg
- Anticonvulsant Activity in 6 Hz Test ED50 ± SEM ([2]; pretreatment time 120 min): 136.2 ± 18.3 mg/kg
- Inhibition of CYP2D6 activity compared to the control (CYP2D6): did not statistically significantly inhibit
- Inhibition of CYP2C19 activity compared to the control (CYP2C19): statistically significantly inhibited
- Neurotoxicity in Chimney or Rotarod (†) Tests in Mice (mice; pretreatment time 15 min): 462.9 ± 20.0
- Neurotoxicity in Chimney or Rotarod (†) Tests in Mice (mice; pretreatment time 30 min): 462.9 ± 20.0
- Neurotoxicity in Chimney or Rotarod (†) Tests in Mice (mice; pretreatment time 60 min): 456.9 ± 19.7
- Neurotoxicity in Chimney or Rotarod (†) Tests in Mice (mice; pretreatment time 120 min): 448.1 ± 21.7
- Inhibition of CYP3A5 activity compared to the control (CYP3A5): did not statistically significantly inhibit
- Anticonvulsant Activity in MES Test ED50 ± S.E. ([3]; pretreatment time 15 min): 47.6 ± 3.8 mg/kg
- Anticonvulsant Activity in MES Test ED50 ± S.E. ([3]; pretreatment time 30 min): 68.3 ± 10.3 mg/kg
- Anticonvulsant Activity in MES Test ED50 ± S.E. ([3]; pretreatment time 60 min): 98.1 ± 16.4 mg/kg
- Anticonvulsant Activity in MES Test ED50 ± S.E. ([3]; pretreatment time 120 min): 159.7 ± 21.7 mg/kg
